# From ChEMBL document CHEMBL1165918, “Synthesis and biological activity of N-aroyl-tetrahydro-gamma-carbolines” (Bioorg Med Chem, 2010)
# Legend:
# [1] = molecular target: T1, Polyunsaturated fatty acid 5-lipoxygenase (Homo sapiens, UniProt P09917)
# T1 sequence (P09917 whole entry): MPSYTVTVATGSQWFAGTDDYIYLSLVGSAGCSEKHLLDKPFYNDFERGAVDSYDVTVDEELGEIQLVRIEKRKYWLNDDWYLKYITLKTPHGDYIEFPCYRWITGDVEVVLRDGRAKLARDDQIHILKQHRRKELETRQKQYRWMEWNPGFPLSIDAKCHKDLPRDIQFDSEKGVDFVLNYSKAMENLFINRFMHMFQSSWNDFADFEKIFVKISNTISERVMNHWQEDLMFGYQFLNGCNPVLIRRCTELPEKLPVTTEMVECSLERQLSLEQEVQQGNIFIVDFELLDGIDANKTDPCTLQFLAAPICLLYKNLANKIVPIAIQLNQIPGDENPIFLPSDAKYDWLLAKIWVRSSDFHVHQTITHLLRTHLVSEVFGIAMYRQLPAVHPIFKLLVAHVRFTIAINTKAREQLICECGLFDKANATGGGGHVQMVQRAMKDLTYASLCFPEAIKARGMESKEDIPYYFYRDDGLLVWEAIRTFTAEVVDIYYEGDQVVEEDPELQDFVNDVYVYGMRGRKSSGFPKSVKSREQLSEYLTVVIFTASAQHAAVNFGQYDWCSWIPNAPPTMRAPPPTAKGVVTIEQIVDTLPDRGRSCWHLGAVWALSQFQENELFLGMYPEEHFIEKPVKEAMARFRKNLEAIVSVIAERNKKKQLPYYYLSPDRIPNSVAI
# [2] = molecular target: T2, Prostaglandin G/H synthase 1 (Homo sapiens, UniProt P23219); test: Inhibition of COX1 in human whole blood assessed as inhibition of 12-hydroxyheptadecatrienoic acid production at 10 uM by HPLC method; format: tissue-based
# T2 sequence (P23219 whole entry): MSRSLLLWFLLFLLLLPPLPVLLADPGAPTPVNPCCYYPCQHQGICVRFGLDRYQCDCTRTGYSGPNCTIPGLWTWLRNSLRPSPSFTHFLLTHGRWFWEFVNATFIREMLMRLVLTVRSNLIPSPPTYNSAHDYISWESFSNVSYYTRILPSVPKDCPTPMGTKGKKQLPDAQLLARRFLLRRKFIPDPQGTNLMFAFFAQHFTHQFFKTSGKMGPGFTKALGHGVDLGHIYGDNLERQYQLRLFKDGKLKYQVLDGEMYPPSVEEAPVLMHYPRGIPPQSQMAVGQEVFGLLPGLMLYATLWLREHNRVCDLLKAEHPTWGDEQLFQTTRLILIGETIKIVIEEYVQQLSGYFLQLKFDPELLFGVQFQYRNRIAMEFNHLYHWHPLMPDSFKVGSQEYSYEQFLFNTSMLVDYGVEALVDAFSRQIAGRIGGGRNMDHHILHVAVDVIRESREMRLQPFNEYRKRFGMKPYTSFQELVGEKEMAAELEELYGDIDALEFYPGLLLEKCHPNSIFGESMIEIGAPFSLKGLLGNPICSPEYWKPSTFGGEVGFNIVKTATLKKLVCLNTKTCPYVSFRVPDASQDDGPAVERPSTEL
# [3] = molecular target: T1, Polyunsaturated fatty acid 5-lipoxygenase; remark: listed apart in the source
# [4] = test system: PC-3; test: Growth inhibition of human PC3 cells at 10 uM after 72 hrs by MTT assay; format: functional; details: PC-3, 72 h, read-out: GI
# [5] = test system: MCF7; test: Growth inhibition of human MCF7 cells at 10 uM after 72 hrs by MTT assay; format: functional; details: MCF7, 72 h, read-out: GI
# [6] = test system: L1210; test: Growth inhibition of mouse L1210 cells at 10 uM after 72 hrs by MTT assay; format: functional; details: L1210, 72 h, read-out: GI
# [7] = molecular target: T3, Prostaglandin G/H synthase 2 (Homo sapiens) (UniProt P35354); test: Inhibition of COX2 in human whole blood assessed as inhibition of 12-hydroxyheptadecatrienoic acid production at 10 uM by HPLC method; format: tissue-based
# T3 sequence (whole entry): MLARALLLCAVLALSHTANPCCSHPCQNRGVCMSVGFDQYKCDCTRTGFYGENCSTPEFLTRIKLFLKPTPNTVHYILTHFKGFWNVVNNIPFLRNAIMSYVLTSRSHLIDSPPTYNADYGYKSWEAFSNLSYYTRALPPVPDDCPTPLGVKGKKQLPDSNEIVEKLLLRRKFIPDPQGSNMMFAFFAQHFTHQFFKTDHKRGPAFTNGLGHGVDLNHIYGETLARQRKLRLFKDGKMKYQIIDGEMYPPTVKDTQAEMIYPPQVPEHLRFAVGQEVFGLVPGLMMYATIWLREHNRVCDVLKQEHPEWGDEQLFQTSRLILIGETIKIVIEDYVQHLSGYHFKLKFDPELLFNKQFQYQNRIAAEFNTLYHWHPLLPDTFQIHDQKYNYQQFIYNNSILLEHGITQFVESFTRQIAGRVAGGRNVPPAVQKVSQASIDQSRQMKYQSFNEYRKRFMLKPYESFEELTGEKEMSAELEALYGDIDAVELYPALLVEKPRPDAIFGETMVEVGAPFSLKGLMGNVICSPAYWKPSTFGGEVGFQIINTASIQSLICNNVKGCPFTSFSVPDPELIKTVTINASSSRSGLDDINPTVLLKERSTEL
# [8] = molecular target: T2, Prostaglandin G/H synthase 1; format: tissue-based, Blood
# Description: Inhibition of COX1 in human whole blood assessed as inhibition of 12-hydroxyheptadecatrienoic acid production by HPLC method
# [9] = test system: MCF7; test: cells; details: Homo sapiens, MCF7, 72 h
# Description: Cytotoxicity against human MCF7 cells after 72 hrs by MTT assay
# [10] = test system: L1210; test: Cytotoxicity against mouse L1210 cells after 72 hrs by MTT assay; format: functional, cell-based; details: L1210, 72 h
# [11] = molecular target: T2, Prostaglandin G/H synthase 1; test: Inhibition of COX1 in human whole blood; format: tissue-based
# [12] = molecular target: T1, Polyunsaturated fatty acid 5-lipoxygenase; test: Inhibition of 5-lipoxygenase in human whole blood; format: tissue-based
# [13] = test system: PC-3; test: cells; details: Homo sapiens, PC-3, 72 h
# Description: Cytotoxicity against human PC3 cells after 72 hrs by MTT assay
# [14] = species: Homo sapiens; test: Selectivity ratio of IC50 for COX2 in human whole blood to IC50 for COX1 in human whole blood; format: tissue-based
# [15] = molecular target: T4, Polyunsaturated fatty acid 5-lipoxygenase (Homo sapiens) (UniProt P09917); format: tissue-based; details: Blood, 10 uM
# T4 sequence (whole entry): T1 sequence (P09917 whole entry)
Structure (SMILES),IC50 [1],IC50 [3],IC50 [8],inhibition of growth at 10 µM [4],inhibition of growth at 10 µM [5],inhibition of growth at 10 µM [6],further results
Cc1ccc(-c2cc(C(F)(F)F)nn2-c2ccc(S(N)(=O)=O)cc2)cc1 [CELECOXIB],–,–,–,–,–,–,IC50 [9]: 50.2 µM; IC50 [10]: 44 µM
CS(=O)(=O)c1ccc2c(c1)c1c(n2C(=O)c2ccccc2)CCNC1,–,–,24.4 µM,7%,0%,0%,–
COC1(c2cc(F)cc(OCc3cc(-c4ccccc4)n(-c4ccc(S(C)(=O)=O)cc4)n3)c2)CCOCC1,–,–,–,–,–,–,IC50 [11]: > 10 µM; IC50 [12]: 0.2 µM
COC1(c2cc(F)cc(OCCCN3CCc4c(c5cc(S(C)(=O)=O)ccc5n4CCCOc4cc(F)cc(C5(OC)CCOCC5)c4)C3)c2)CCOCC1,–,–,–,–,36%,–,IC50 [10]: 3 µM
COC1(c2cc(F)cc(OCCCN3CCc4c(c5cc(F)ccc5n4Cc4ccc(S(C)(=O)=O)cc4)C3)c2)CCOCC1,24.6 µM,29.5 µM,180 µM,–,34%,38%,IC50 [13]: 8 µM
COC(=O)c1cc2cc(S(C)(=O)=O)ccc2n1Cc1ccc(Cl)cc1,–,–,–,–,–,–,IC50 [11]: > 10 µM; Ratio IC50 [14]: < 0.05
COc1ccc2c(c1)c1c(n2Cc2ccc(S(C)(=O)=O)cc2)CCN(CCCOc2cc(F)cc(C3(OC)CCOCC3)c2)C1,–,–,–,–,27%,–,IC50 [13]: 8 µM; IC50 [10]: 5 µM
COc1ccc2c(c1)c1c(n2C(=O)c2ccccc2)CCNC1,–,–,6 µM,0%,0%,32%,–
COC1(c2cc(F)cc(OCCCN3CCc4c(c5ccccc5n4C(=O)c4ccccc4)C3)c2)CCOCC1,206 µM,92.9 µM,18.2 µM,6%,30%,24%,–

# The next lines start with results.
IC50 [1],IC50 [3],IC50 [8],Structure (SMILES),inhibition of growth at 10 µM [4],inhibition of growth at 10 µM [5],inhibition of growth at 10 µM [6],further results
108 µM,66.4 µM,–,COc1ccc2c(c1)c1c(n2C(=O)c2ccccc2)CCN(CCCOc2cc(F)cc(C3(OC)CCOCC3)c2)C1,20%,18%,20%,inhibition [2]: 84.3%
–,–,24 µM,COC1(c2cc(F)cc(OCCCN3CCc4c(c5cc(S(C)(=O)=O)ccc5n4C(=O)c4ccccc4)C3)c2)CCOCC1,37%,15%,38%,inhibition [7]: 8.4%
119 µM,59.3 µM,7.4 µM,COc1ccc2c(c1)c1c(n2C(=O)c2ccc(Cl)cc2)CCN(CCCOc2cc(F)cc(C3(OC)CCOCC3)c2)C1,9%,–,–,IC50 [9]: 8 µM; IC50 [10]: 8 µM
62 µM,47.4 µM,16.5 µM,COc1ccc2c(c1)c1c(n2C(=O)c2ccc(Br)cc2)CCN(CCCOc2cc(F)cc(C3(OC)CCOCC3)c2)C1,0%,39%,42%,–
55 µM,45.4 µM,36.7 µM,COc1ccc2c(c1)c1c(n2C(=O)c2c(Cl)cc(Cl)cc2Cl)CCN(CCCOc2cc(F)cc(C3(OC)CCOCC3)c2)C1,0%,36%,11%,–
> 10 µM,–,–,COc1ccc2c(c1)c1c(n2C(=O)c2ccc(S(=O)(=O)/N=C/N(C)C)cc2)CCN(CCCOc2cc(F)cc(C3(OC)CCOCC3)c2)C1,42%,21%,–,inhibition [15]: 81.4%; IC50 [10]: 6 µM
40.5 µM,38 µM,7.8 µM,COc1ccc2c(c1)c1c(n2C(=O)c2cccc(F)c2)CCN(CCCOc2cc(F)cc(C3(OC)CCOCC3)c2)C1,44%,8%,40%,–
59.9 µM,58 µM,–,COc1ccc2c(c1)c1c(n2C(=O)c2ccc(F)cc2)CCN(CCCOc2cc(F)cc(C3(OC)CCOCC3)c2)C1,0%,37%,44%,inhibition [2]: 71.6%
> 10 µM,39.3 µM,–,COc1ccc2c(c1)c1c(n2C(=O)c2ccccc2F)CCN(CCCOc2cc(F)cc(C3(OC)CCOCC3)c2)C1,15%,21%,45%,inhibition [2]: 83.5%
